Laboratory results reported in patent US11578055B2, “Triazacyclododecansulfonamide (“TCD”)-based protein secretion inhibitors” (KEZAR LIFE SCIENCES, priority 2018, dated 2023).
Like-named read-outs stand apart in the source and are kept apart here.

What was measured:
[1] = test system: multiple myeloma cell line U266B1; test: U266 Cell Viability Assay; assay type: cell-based, human; conditions: 48 hr
Procedure: (§1) The human multiple myeloma cell line U266B1 was cultured in RPMI 1640 media supplemented with 10% fetal bovine serum, 2 mM Glutamine, and 1× Penicillin/Streptomycin. Cells were plated in 384-well tissue culture plates and treated with compound dilutions in DMSO/media. Plates were incubated at 37° C., 5% CO2 for 48 hours. After 48 hours, Celltiter-Glo® (Promega) was added to each well and luciferase signal was quantified using Tecan Infinite M1000 Pro for cell viability determination.
For chemical structures that include one or more stereoisomers, but are illustrated without indicating stereochemistry, the assay data refers to a mixture of stereoisomers

[2] = In Vitro Microsome Stability Assay (mouse); assay type: in vitro ADME
Procedure: (§2) Potassium phosphate (423 μL of a 0.1 M solution) was added to 8-strip deep well tubes followed by human, mouse, rat, or monkey microsomes (25 μL of a 20 mg/mL solution). The tubes were then placed on ice and the test article (2 μL of a 0.25 mM solution in DMSO) was added. The mixture was preincubated at 37° C. for 3 to 5 minutes (shaking at 150 rpm) then the reaction was initiated by adding 50 μL NADPH. An aliquot of samples (100 μL) were collected at 0 and 30 min and 200 μL of an acetonitrile mixture containing IS (compound 914) was added to quench the reaction. After centrifuging for 10 min at 4000 rpm, a mixed solution of the 20 μL of the supernatant (20 μL) plus 100 μL ACN/H2O (1:1) were injected for LC-MS/MS analysis. Liver microsome stability is assessed by the % remaining of compound at 30 min which is calculated using the following equation: [(AUCanalyteT=30/AUCIS)/(AUCanalyteT=0/AUCIS)]*100
(§3) For chemical structures that include one or more stereoisomers, but are illustrated without indicating stereochemistry, the assay data refers to a mixture of stereoisomers.

[3] = test system: PD1 signal sequence plus 10 amino acids fused to Gaussia Luciferase (PD1-ss+10aa/Gaussia Luciferase); test: Dox Induced PD1-ss-Gluc Assay; assay type: cell-based; conditions: 24 hr, read-out: 24 hr Dox Inducible PD1ssGluc 293FRT/TO: Mean IC50
Excerpt: FIp-In 293 T-REx™ cells were transfected with pcDNA™5/FRT/TO plasmid inserted with cDNA encoding Gaussia Luciferase fused to the 3′ end of cDNA encoding PD1 signal sequence plus 10 amino acids (N-[…]-C) (SEQ ID NO: 1). Transfected cells were selected for resistance to the selectable markers Hygromycin and Blasticidin to create a stable cell line that contained the PD1-ss+10aa/Gaussia Luciferase cDNA insert whose expression was regulated under the T-REx™ system. The day before assay, cells were trypsinized and plated in 384-well tissue culture plates. The next day, compound dilutions in DMSO/media containing doxycycline were added to the wells and incubated at 37° C., 5% CO2.
as §3

[4] = test system: full length TNFα (amino acids 1-233) fused to Gaussia Luciferase; test: Dox Induced TNFα-FL-Gluc Assay; assay type: cell-based; conditions: 24 hr, read-out: 24 hr Dox Inducible TNFaFLGluc 293FRT/TO: Mean IC50
Excerpt: FIp-In 293 T-REx™ cells were transfected with pcDNA™5/FRT/TO plasmid inserted with cDNA encoding Gaussia Luciferase fused to the 3′ end of cDNA encoding full length TNFα (amino acids 1-233). Transfected cells were selected for resistance to the selectable markers Hygromycin and Blasticidin to create a stable cell line that contained the TNFα-FL/Gaussia Luciferase cDNA insert whose expression was regulated under the T-REx™ system. The day before assay, cells were trypsinized and plated in 384-well tissue culture plates. The next day, compound dilutions in DMSO/media containing doxycycline were added to the wells and incubated at 37° C., 5% CO2.
as §3

[5] = test system: multiple myeloma cell line NCl-H929; test: H929 Cell Viability Assay; assay type: cell-based, human
Procedure: as §1, with “NCl-H929” for “U266B1”, “cultured in Advanced RPMI 1640 media (Gibco®) supplemented with 6% fetal bovine serum, 2 mM Glutamine, and 1× Penicillin/Streptomycin. On the day of assay, cells were resuspended” for “cultured”, “Penicillin/Streptmycin and” for “Penicillin/Streptomycin. Cells were”
as §3

[6] = In Vitro Microsome Stability Assay (human); assay type: in vitro ADME
Procedure: as §2, §3

[7] = In Vitro Microsome Stability Assay (rat); assay type: in vitro ADME
Procedure: as §2, §3

[8] = In Vitro Microsome Stability Assay (monkey); assay type: in vitro ADME
Procedure: as §2, §3

[9] = Homo sapiens, U-266, U266, read-out: 48 hr U266 Viability Celltiter-Glo: Mean EC50
[10] = 48 hr, H929, read-out: 48 hr H929 Viability Celltiter-Glo: Mean EC50
[11] = Homo sapiens, U-266, U266, Celltiter-Glo
[12] = mouse liver microsomes, 30 min w/ NADPH
[13] = Homo sapiens, NCI-H929, 48 h, H929, Celltiter-Glo
[14] = human liver microsomes, 30 min w/ NADPH
[15] = rat liver microsomes, 30 min w/ NADPH
[16] = monkey liver microsomes, 30 min w/ NADPH
[17] = Homo sapiens, NCI-H929, 48 h, H929, read-out: 48 hr H929 Viability Celltiter-Glo: Mean EC50

SMILES	EC50 [1, 9] [µM]	Liver Microsome Stability-% Left after 30 min w/ NADPH (%) Mouse ([2]; mouse, 30 min, NADPH) [%]	IC50 ([3]; 293FRT/TO) [µM]	IC50 ([4]; 293FRT/TO) [µM]	EC50 [5, 10] [µM]	Liver Microsome Stability-% Left after 30 min w/ NADPH (%) Human ([6]; human, 30 min, NADPH) [%]	Liver Microsome Stability-% Left after 30 min w/ NADPH (%) Rat ([7]; rat, 30 min, NADPH) [%]	Liver Microsome Stability-% Left after 30 min w/ NADPH (%) Monkey ([8]; monkey, 30 min, NADPH) [%]	EC50 ([1]; U266, read-out: 48 hr U266 Viability Celltiter-Glo: Mean EC50) [µM]	EC50 [1, 11] [µM]	Liver Microsome Stability-% Left after 30 min w/ NADPH (%) Mouse [2, 12] [%]	IC50 ([3]; Dox inducible, 293FRT/TO cells) [µM]	IC50 ([4]; Dox inducible, 293FRT/TO cells) [µM]	EC50 [5, 13] [µM]	Liver Microsome Stability-% Left after 30 min w/ NADPH (%) Human [6, 14] [%]	Liver Microsome Stability-% Left after 30 min w/ NADPH (%) Rat [7, 15] [%]	Liver Microsome Stability-% Left after 30 min w/ NADPH (%) Monkey [8, 16] [%]	EC50 [5, 17] [µM]
C=C1CN(S(=O)(=O)c2ccc(C)cc2)CCCN(CC2CCCCC2)CCCN(S(=O)(=O)C2CCCCC2)C1 [A5]	> 25	0.27	0.651	> 25	8.43	0.24	0.24	0.31										
C=C1CN(S(=O)(=O)c2ccc(C)cc2)CCCN(CC2CCCCC2)CCCN(S(=O)(=O)C2CCCCC2)C1 [A8, 1-(cyclohexanesulfonyl)-9-(cyclohexylmethyl)-5-(4-methylbenzenesulfonyl)-3-methylidene-1,5,9-triazacyclododecane]		0.17	2.68	> 25	> 25	0.09	0.61	0.19	> 25									
CN(C)c1ccc(S(=O)(=O)N2CCCCN(S(=O)(=O)N3CCC(c4ccccc4)CC3)CCCN(CC3CCCCC3)CCC2)cc1 [B5]										> 25	0.24	1.5	> 25	> 25	0.54	7.08	0.21	
CN(C)c1ccc(S(=O)(=O)N2C/C=C/CN(S(=O)(=O)N3CCC(c4ccccc4)CC3)CCCN(CC3CCCCC3)CCC2)cc1 [B9, 4-{[(11E)-5-(cyclohexylmethyl)-9-[(4-phenylpiperidin-1-yl)sulfonyl]-1,5,9-triazacyclotridec-11-en-1-yl]sulfonyl}-N,N-dimethylaniline]										> 25	0.36	3.64	> 25	> 25	0.49	3.74	0.26	
C=C1CN(S(=O)(=O)c2ccc(C)cc2)CCCN(CC2CCCCC2)CCCN(S(=O)(=O)C(C)C)C1 [A7, 9-(cyclohexylmethyl)-1-(4-methylbenzenesulfonyl)-3-methylidene-5-(propane-2-sulfonyl)-1,5,9-triazacyclododecane]	> 25	0.17	2.31	> 25		0.29	0.23	0.99										22.4
C=C1CN(S(=O)(=O)c2ccc(N(C)C)cc2)CCCN(CC2CCCCC2)CCCN(S(=O)(=O)N2CCc3cc(OC)ccc3C2)C1 [A71, 4-{[9-(cyclohexylmethyl)-5-[(6-methoxy-1,2,3,4-tetrahydroisoquinolin-2-yl)sulfonyl]-3-methylidene-1,5,9-triazacyclododecan-1-yl]sulfonyl}-N,N-dimethylaniline]	> 25	11.5	0.0633	2.01		5.55	17.2	6.75										7.72
C=C1CN(S(=O)(=O)c2ccc(N(C)C)cc2)CCCN(CC2CCCCC2)CCCN(S(=O)(=O)N2CCC(Oc3ccccc3)CC2)C1 [A37, 4-{[9-(cyclohexylmethyl)-3-methylidene-5-[(4-phenoxypiperidin-1-yl)sulfonyl]-1,5,9-triazacyclododecan-1-yl]sulfonyl}-N,N-dimethylaniline]	> 25	6.03	0.202	> 25		8.26	13.5	5.69										> 25
C=C1CN(S(=O)(=O)c2ccc(N(C)C)cc2)CCCN(CC2CCCCC2)CCCN(S(=O)(=O)N2CCc3cc(-c4ccccc4)ccc3C2)C1 [A63, 4-((9-(cyclohexylmethyl)-3-methylene-5-((6-phenyl-3,4-dihydroisoquinolin-2(1H)-yl)sulfonyl)-1,5,9-triazacyclododecan-1-yl)sulfonyl)-N,N-dimethylaniline]	> 25	85.2	0.0437	1.87		76.4	88.2	84.4										7.43
C=C1CN(S(=O)(=O)c2ccc(N(C)C)cc2)CCCN(CC2CCCCC2)CCCN(S(=O)(=O)N2CC=C(C3=CCCC3)CC2)C1 [A67, 4-{[9-(cyclohexylmethyl)-5-{[4-(cyclopent-1-en-1-yl)-1,2,3,6-tetrahydropyridin-1-yl]sulfonyl}-3-methylidene-1,5,9-triazacyclododecan-1-yl]sulfonyl}-N,N-dimethylaniline]	> 25	28	0.0408	0.937		33.2	45.4	27.6										2.4
Cc1cc(N(C)C)ccc1S(=O)(=O)N1CCCN(CC2CCCCC2)CCCN(S(=O)(=O)N2CCCCC2)CC2(CC2)C1 [A30, 4-{[9-(cyclohexylmethyl)-13-(piperidine-1-sulfonyl)-5,9,13-triazaspiro[2.11]tetradecan-5-yl]sulfonyl}-N,N,3-trimethylaniline]	> 25	0.35	0.793	> 25		0.12	0.28	0.03										> 25
